Assay results: ChEMBL document CHEMBL2074076, “Reversal of P-glycoprotein-mediated multidrug resistance by Alisol B 23-acetate” (Biochem Pharmacol, 2004)

Tests used:
[1] = target: T1, ATP-dependent translocase ABCB1 (Homo sapiens, UniProt P08183); assay: TP_TRANSPORTER: drug resistance (vinblastine) in K562-DR cells; format: functional, cell-based
[2] = target: T1, ATP-dependent translocase ABCB1; assay: TP_TRANSPORTER: drug resistance (vinblastine) in HepG2-DR cells; format: functional, cell-based

T1 sequence (P08183 whole entry): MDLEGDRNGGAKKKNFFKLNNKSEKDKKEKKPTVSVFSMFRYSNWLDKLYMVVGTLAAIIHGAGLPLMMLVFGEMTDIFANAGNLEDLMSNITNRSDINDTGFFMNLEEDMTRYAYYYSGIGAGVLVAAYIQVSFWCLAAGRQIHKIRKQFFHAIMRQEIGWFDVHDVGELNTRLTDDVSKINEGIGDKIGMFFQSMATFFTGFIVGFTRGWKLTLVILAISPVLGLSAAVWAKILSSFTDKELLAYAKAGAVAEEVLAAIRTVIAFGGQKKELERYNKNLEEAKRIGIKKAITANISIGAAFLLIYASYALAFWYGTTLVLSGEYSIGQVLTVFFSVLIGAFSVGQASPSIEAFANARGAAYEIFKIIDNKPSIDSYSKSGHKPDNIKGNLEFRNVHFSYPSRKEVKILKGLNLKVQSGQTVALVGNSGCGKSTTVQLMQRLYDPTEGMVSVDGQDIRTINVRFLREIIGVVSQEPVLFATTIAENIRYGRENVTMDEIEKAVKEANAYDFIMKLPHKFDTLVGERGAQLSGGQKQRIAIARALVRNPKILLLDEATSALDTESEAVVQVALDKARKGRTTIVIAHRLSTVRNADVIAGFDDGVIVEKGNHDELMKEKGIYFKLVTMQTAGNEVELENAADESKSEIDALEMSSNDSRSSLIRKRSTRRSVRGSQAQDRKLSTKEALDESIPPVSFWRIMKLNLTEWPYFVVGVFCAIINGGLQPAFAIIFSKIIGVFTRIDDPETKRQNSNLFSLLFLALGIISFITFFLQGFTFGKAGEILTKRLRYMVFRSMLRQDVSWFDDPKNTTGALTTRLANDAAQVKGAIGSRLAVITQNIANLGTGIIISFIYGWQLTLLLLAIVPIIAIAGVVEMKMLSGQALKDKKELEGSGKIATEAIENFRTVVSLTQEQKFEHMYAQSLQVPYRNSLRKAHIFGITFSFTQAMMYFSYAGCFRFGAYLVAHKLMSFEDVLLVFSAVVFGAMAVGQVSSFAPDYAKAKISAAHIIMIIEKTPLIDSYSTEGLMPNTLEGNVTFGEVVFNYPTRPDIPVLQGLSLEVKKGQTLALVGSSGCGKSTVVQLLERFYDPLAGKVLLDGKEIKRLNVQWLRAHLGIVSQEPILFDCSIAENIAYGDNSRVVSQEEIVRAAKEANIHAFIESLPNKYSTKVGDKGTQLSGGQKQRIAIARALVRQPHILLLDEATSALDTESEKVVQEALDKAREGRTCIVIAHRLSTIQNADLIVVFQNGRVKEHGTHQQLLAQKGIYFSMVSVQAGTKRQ

With `C[C@H](C[C@](O)(CC(=O)O)C1OC1(C)C)C1=C2C[C@H](O)[C@@H]3[C@H](CCC4C(C)(C)C(=O)CC[C@@]43C)[C@@]2(C)CC1` (some centres not stated) the Activity [1] was “inhibitor [+]” and the Activity [2] was “inhibitor [+]”.
